Measured values from paper PMC9578339, “Deracemisation and stereoinversion by a nanoconfined bidirectional enzyme cascade: dual control by electrochemistry and selective metal ion activation” (Chemical Communications (Cambridge, England), 2022).

Target: T1, LK (R-selective alcohol dehydrogenase) (Lentilactobacillus kefiri, UniProt Q6WVP7)
T1 construct: gene adh; homo-tetramer; Mg2+ dependent; co-entrapped with FNR in porous ITO electrode
T1 sequence (Q6WVP7 1-252): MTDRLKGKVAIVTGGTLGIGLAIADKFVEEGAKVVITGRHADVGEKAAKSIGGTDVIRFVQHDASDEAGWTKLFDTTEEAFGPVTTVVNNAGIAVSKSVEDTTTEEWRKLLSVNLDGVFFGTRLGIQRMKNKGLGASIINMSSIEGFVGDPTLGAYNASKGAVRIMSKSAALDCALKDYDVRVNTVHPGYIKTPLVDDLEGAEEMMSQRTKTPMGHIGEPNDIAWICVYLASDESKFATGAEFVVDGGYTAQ
Test: chronoamperometry on FNR/ITO electrode, chiral GC
Assay type: biochemical
Details: pH 9.0, 50 mM TAPS, 25 °C, 5 mM Mg2+, 20 uM NADP+; enzyme entrapped with FNR and W110V in ITO electrode

## C[C@@H](O)CCc1ccccc1 [(R)-4-phenyl-2-butanol]
  chronoamperometry on FNR/ITO electrode, chiral GC: conversion of (R)-4-phenyl-2-butanol to 4-phenyl-2-butanone by LK
